Laboratory results: paper PMC13210772, “Dual FLT3/MAPK14 Proteolysis-Targeting Chimera (PROTAC) Induces Potent Acute Myeloid Leukemia Cell Death” (Pharmaceuticals, 2026)

How the values were obtained:
[1] = in vitro; conditions: CD-1, mouse, liver microsomes, pH 7.4
[2] = Metabolic stability in liver microsomes
[3] = Non-enzymatic stability under cellular assay conditions (HPLC); type: physicochemical; conditions: compound remaining, assay medium DMEM, 37 °C
Protocol: An important aspect in the development of PROTACs is testing chemical stability. On the one hand, we tested all PROTACs produced for their stability under cellular assay conditions. For this purpose, 10 µM solutions of the PROTACs and reference inhibitor were incubated for 72 h at 37 °C with the assay medium DMEM. The remaining amount of the compounds was determined by HPLC after 6, 12, 24, 48 and 72 h. The results of the stability studies are shown in Table S2 (Supplementary Information).
The developed compounds were diluted in the assay media consisting of a mixture of DMEM (50%), DMSO (10%) and acetonitrile (40%) at pH 7.4 and incubated at 37 °C for 72 h. The quantity of the compounds was measured after 6, 12, 24, 48, and 72 h by HPLC using an XTerra RP18 column ([…], 3.9 mm × 100 mm) from the manufacturer Waters (Milford, MA, USA) and two LC-10AD pumps, an SPD-M10AVP PDA detector, and an SIL-HT autosampler, all from the manufacturer Shimadzu (Kyoto, Japan).

[4] = target: T1, FLT3-ITD (Homo sapiens, UniProt P36888, INS600HVDFREYEYD); assay: FLT3-ITD degradation, immunoblot in MV4-11 cells; conditions: for inhibition at 0.05 µM: MV4-11, 24 h, read-out: % FLT3-ITD Degradation at 50 nM
T1 sequence (P36888 with tags, fused parts or gaps INS600HVDFREYEYD): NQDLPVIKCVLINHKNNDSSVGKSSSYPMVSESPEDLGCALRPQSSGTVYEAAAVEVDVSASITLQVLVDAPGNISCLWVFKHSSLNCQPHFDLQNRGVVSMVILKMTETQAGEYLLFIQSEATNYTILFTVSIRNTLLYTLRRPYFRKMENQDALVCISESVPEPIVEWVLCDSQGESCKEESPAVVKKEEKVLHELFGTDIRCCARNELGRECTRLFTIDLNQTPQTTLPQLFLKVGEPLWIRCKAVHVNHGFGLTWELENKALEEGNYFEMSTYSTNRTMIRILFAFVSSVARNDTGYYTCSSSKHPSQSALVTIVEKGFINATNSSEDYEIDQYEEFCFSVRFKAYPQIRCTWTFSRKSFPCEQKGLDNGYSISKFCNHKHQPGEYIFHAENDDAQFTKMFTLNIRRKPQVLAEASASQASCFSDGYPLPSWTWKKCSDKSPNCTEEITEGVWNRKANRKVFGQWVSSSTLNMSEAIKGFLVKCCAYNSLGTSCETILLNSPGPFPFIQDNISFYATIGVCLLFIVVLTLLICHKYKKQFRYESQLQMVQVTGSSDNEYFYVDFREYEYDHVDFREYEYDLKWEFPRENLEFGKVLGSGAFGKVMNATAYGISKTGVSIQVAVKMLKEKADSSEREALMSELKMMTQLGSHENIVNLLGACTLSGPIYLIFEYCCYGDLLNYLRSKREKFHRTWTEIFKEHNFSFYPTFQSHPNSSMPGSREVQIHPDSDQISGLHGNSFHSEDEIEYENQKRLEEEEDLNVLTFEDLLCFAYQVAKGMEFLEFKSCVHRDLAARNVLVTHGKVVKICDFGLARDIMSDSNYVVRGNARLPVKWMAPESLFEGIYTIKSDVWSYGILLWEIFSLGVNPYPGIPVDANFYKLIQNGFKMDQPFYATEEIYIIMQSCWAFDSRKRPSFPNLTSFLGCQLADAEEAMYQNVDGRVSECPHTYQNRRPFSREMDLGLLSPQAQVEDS

[5] = system: FLT3-ITD; assay: KINOMEscan binding assay
Protocol: Binding to FLT3-ITD was determined using the KINOMEscan^TM assay (Eurofins DiscoverX Corporation, San Diego, CA, USA)
Kinase-tagged T7 phage strains were prepared in an E. coli host derived from the BL21 strain. E. coli were grown to log-phase and infected with T7 phage and incubated with shaking at 32 °C until lysis. The lysates were centrifuged and filtered to remove cell debris. The remaining kinases were produced in HEK-293 cells and subsequently tagged with DNA for qPCR detection. […] The liganded beads were blocked with excess biotin and washed with blocking buffer (SeaBlock (Pierce), 1% BSA, 0.05% Tween 20, 1 mM DTT) to remove unbound ligand and to reduce non-specific binding. […] The compounds were then diluted directly into the assays such that the final concentration of DMSO was 0.9%. All reactions performed in polypropylene 384-well plate. Each was a final volume of 0.02 mL. […] The kinase concentration in the eluates was measured by qPCR.

| Structure (SMILES) | 0 h - % [3] | 6 h- % [3] | 12 h- % [3] | 24 h- % [3] | 48 h- % [3] | 72 h- % [3] | inhibition at 0.05 µM [4] | % FLT3-ITD Binding at 1 µM [5] | further results |
| --- | --- | --- | --- | --- | --- | --- | --- | --- | --- |
| O=C(O)Cc1ccccc1Nc1c(Cl)cccc1Cl [Diclofenac, Diclofenac sodium, reference compound] |  |  |  |  |  |  |  |  | remaining at 10 min, 25 µM [1]: 94.7 ± 1.7%; remaining at 0.5 h, 25 µM [1]: 78%; remaining at 1 h, 25 µM [1]: 73%; remaining at 2 h, 25 µM [1]: 59%; 0 min—Compound Remaining % ([2]; mouse (CD-1) liver microsomes, 25 μM, 0 min): 100%; 30 min—Compound Remaining % ([2]; mouse (CD-1) liver microsomes, 25 μM, 30 min): 79.0 ± 1.3%; 120 min—Compound Remaining % ([2]; mouse (CD-1) liver microsomes, 25 μM, 120 min): 60.8 ± 2.2%; 0 min - compound remaining % ([2]; single runs A and B (Table S3), 0 min): 100%; 10 min - compound remaining % ([2]; single runs A and B (Table S3), 10 min): 96%; 30 min - compound remaining % ([2]; single runs A and B (Table S3), 30 min, listed as Diclofenac_A): 80% |
| Cc1ncsc1-c1ccc([C@H](C)NC(=O)[C@@H]2C[C@@H](O)CN2C(=O)[C@@H](NC(=O)CCCCCCCNC(=O)c2cc(Oc3ccc(NC(=O)Nc4cccc(C(F)(F)F)c4)cc3)ccn2)C(C)(C)C)cc1 [MA42, N-(8-(((S)-1-((2S,4R)-4-Hydroxy-2-(((S)-1-(4-(4-methylthiazol-5-yl)phenyl)ethyl)carbamoyl)-pyrrolidin-1-yl)-3,3-dimethyl-1-oxobutan-2-yl)amino)-8-oxooctyl)-4-(4-(3-(3-(trifluoromethyl)phenyl)ureido)phenoxy)picolinamide] | 100% | 99.7% | 100.0% | 100.2% | 100.8% | 101.0% | 30% |  | FLT3-ITD degradation ([4]; MV4-11 cells, 50 nM, 24 h): no significant degradation |
| Cc1ncsc1-c1ccc([C@H](C)NC(=O)[C@@H]2C[C@@H](O)CN2C(=O)[C@@H](NC(=O)CCCCCNC(=O)c2cc(Oc3ccc(NC(=O)Nc4cccc(C(F)(F)F)c4)cc3)ccn2)C(C)(C)C)cc1 [MA43, N-(6-(((S)-1-((2S,4R)-4-Hydroxy-2-(((S)-1-(4-(4-methylthiazol-5-yl)phenyl)ethyl)carbamoyl)-pyrrolidin-1-yl)-3,3-dimethyl-1-oxobutan-2-yl)amino)-6-oxohexyl)-4-(4-(3-(3-(trifluoromethyl)phenyl)ureido)phenoxy)picolinamide] | 100% | 100.1% | 100.3% | 100.5% | 101.0% | 101.2% | 20% |  | FLT3-ITD degradation ([4]; MV4-11 cells, 50 nM, 24 h): no significant degradation |
| Cc1ncsc1-c1ccc([C@H](C)NC(=O)[C@@H]2C[C@@H](O)CN2C(=O)[C@@H](NC(=O)CCCCCCCNC(=O)c2cc(Oc3ccc(NC(=O)Nc4cc(C(C)(C)C)on4)cc3)ccn2)C(C)(C)C)cc1 [MA73, 4-(4-(3-(5-(tert-Butyl)isoxazol-3-yl)ureido)phenoxy)-N-(8-(((S)-1-((2S,4R)-4-hydroxy-2-(((S)-1-(4-(4-methylthiazol-5-yl)phenyl)ethyl)carbamoyl)pyrrolidin-1-yl)-3,3-dimethyl-1-oxobutan-2-yl)amino)-8-oxooctyl)picolinamide] | 100% | 101.2% | 101.3% | 102.2% | 103.3% | 106.1% | 80% | 84 ± 1% |  |
| Cc1ncsc1-c1ccc([C@H](C)NC(=O)[C@@H]2C[C@@H](O)CN2C(=O)[C@@H](NC(=O)CCOCCOCCNC(=O)c2cc(Oc3ccc(NC(=O)Nc4cc(C(C)(C)C)on4)cc3)ccn2)C(C)(C)C)cc1 [MA74, 4-(4-(3-(5-(tert-Butyl)isoxazol-3-yl)ureido)phenoxy)-N-(2-(2-(3-(((S)-1-((2S,4R)-4-hydroxy-2-(((S)-1-(4-(4-methylthiazol-5-yl)phenyl)ethyl)carbamoyl)pyrrolidin-1-yl)-3,3-dimethyl-1-oxobutan-2-yl)amino)-3-oxopropoxy)ethoxy)ethyl)picolinamide] | 100% | 101.4% | 101.4% | 101.8% | 102.6% | 103.1% | 90% | 89 ± 2% |  |
| Cc1ncsc1-c1ccc([C@H](C)NC(=O)[C@H]2C[C@H](O)CN2C(=O)[C@@H](NC(=O)[C@H]2CC[C@H](C(=O)N3CCC(CCNC(=O)c4cc(Oc5ccc(NC(=O)Nc6cc(C(C)(C)C)on6)cc5)ccn4)CC3)CC2)C(C)(C)C)cc1 [MA224, 4-(4-(3-(5-(tert-Butyl)isoxazol-3-yl)ureido)phenoxy)-N-(2-(1-(trans-4-(((S)-1-((2R,4S)-4-hydroxy-2-(((S)-1-(4-(4-methylthiazol-5-yl)phenyl)ethyl)carbamoyl)pyrrolidin-1-yl)-3,3-dimethyl-1-oxobutan-2-yl)carbamoyl)cyclohexanecarbonyl)piperidin-4-yl)ethyl)picolinamide] |  |  |  |  |  |  |  |  | % FLT3-ITD Degradation at 50 nM ([4]; MV4-11 cells, 50 nM, 24 h): No effect |
| NS(=O)(=O)OC[C@@H]1C[C@@H](n2ccc3c(N[C@H]4CCc5ccccc54)ncnc32)C[C@@H]1O [MLN4924, reference compound] |  |  |  |  |  |  |  |  | rescue of MA191-mediated degradation ([4]; 50 nM MA191 ± 3 µM MLN4924, 6 h, MV4-11 and MOLM-13 cells): prevented the MA191-mediated degradation of FLT3-ITD as well as MAPK14 |

More lines, main results first:

| 0 h - % [3] | 6 h- % [3] | 12 h- % [3] | 24 h- % [3] | 48 h- % [3] | 72 h- % [3] | inhibition at 0.05 µM [4] | % FLT3-ITD Binding at 1 µM [5] | Structure (SMILES) | further results |
| --- | --- | --- | --- | --- | --- | --- | --- | --- | --- |
| 100% | 99.6% | 99.6% | 99.9% | 100.5% | 100.7% | 80% | 89 ± 2% | Cc1ncsc1-c1ccc([C@H](C)NC(=O)[C@@H]2C[C@@H](O)CN2C(=O)[C@@H](NC(=O)CCCCCCNC(=O)c2cc(Oc3ccc(NC(=O)Nc4cc(C(C)(C)C)on4)cc3)ccn2)C(C)(C)C)cc1 [MA77, 4-(4-(3-(5-(tert-Butyl)isoxazol-3-yl)ureido)phenoxy)-N-(7-(((S)-1-((2S,4R)-4-hydroxy-2-(((S)-1-(4-(4-methylthiazol-5-yl)phenyl)ethyl)carbamoyl)pyrrolidin-1-yl)-3,3-dimethyl-1-oxobutan-2-yl)amino)-7-oxoheptyl)picolinamide] |  |
| 100% | 99.5% | 99.5% | 99.9% | 100.6% | 101.0% | 80% | 89 ± 2% | Cc1ncsc1-c1ccc([C@H](C)NC(=O)[C@@H]2C[C@@H](O)CN2C(=O)[C@@H](NC(=O)CCCCCNC(=O)c2cc(Oc3ccc(NC(=O)Nc4cc(C(C)(C)C)on4)cc3)ccn2)C(C)(C)C)cc1 [MA78, 4-(4-(3-(5-(tert-Butyl)isoxazol-3-yl)ureido)phenoxy)-N-(6-(((S)-1-((2S,4R)-4-hydroxy-2-(((S)-1-(4-(4-methylthiazol-5-yl)phenyl)ethyl)carbamoyl)pyrrolidin-1-yl)-3,3-dimethyl-1-oxobutan-2-yl)amino)-6-oxohexyl)picolinamide] |  |
